{"source": "patent US12269793B2", "about": "“Affinity illudofulvene conjugates” (AF Chemicals, LLC, priority 2019, dated 2025)", "experiment_in_all_cases": "cells", "key": {"[1]": {"system": "MV522 Target Cell Line (lung-derived adenocarcinoma)", "conditions": "MV522, 2 h, read-out: Mean IC50 value"}, "[2]": {"system": "8392B Nontarget Cell Line (hematopoietic)", "conditions": "2 h"}, "[3]": {"system": "MV522 Target Cell Line (lung-derived adenocarcinoma)", "conditions": "MV522, 48 h, read-out: Mean IC50 value"}, "[4]": {"system": "8392B Nontarget Cell Line (hematopoietic)", "conditions": "48 h, read-out: Mean IC50 value"}, "[5]": {"conditions": "read-out: Mean IC50 value, 8392B Nontarget Cell Line, 2 hr exposure, ± SD, N = 3 unless otherwise indicated"}}, "note": "Like-named read-outs stand apart in the source and are kept apart here. Where a SMILES comes first, the peptide text is derived from it. The star is where a group is joined. X4 = CC1=C(C*)C2=C(C)C3(CC3)[C@@](C)(O)C(=O)C2=C1"}
{"smiles": "CC1=C2C(=O)[C@](C)(CO)C=C2C(=O)[C@](C)(O)C12CC2", "note": "[Analog 099]", "values": [{"measurement": "IC50", "setting": "[1]", "result": "8.4 ± 1.1", "unit": "µM"}, {"measurement": "IC50", "setting": "[2]; [5]", "result": "4 ± 0.4", "unit": "µM"}]}
{"smiles": "COC(=O)CSCC1=C(C)C(SCC(=O)OC)=C2C(=O)[C@](C)(O)C3(CC3)C(C)=C12", "note": "[Analog 030]", "values": [{"measurement": "IC50", "setting": "[3]", "result": "> 3", "unit": "µM"}]}
{"smiles": "CC(=O)OCC1=C(CO)C=C2C(=O)[C@](C)(O)C3(CC3)C(C)=C21", "note": "[Analog 078]", "values": [{"measurement": "IC50", "setting": "[1]", "result": "20.4 ± 6.3", "unit": "µM"}, {"measurement": "IC50", "setting": "[2]; [5]", "result": "> 100", "unit": "µM"}]}
{"smiles": "CC1=C2C(=CC(C)(C)[C@@H]2OC(=O)CCCC(=O)Oc2ccc3c(c2)CCC2C3CC[C@]3(C)C(=O)CCC23)C(=O)[C@](C)(O)C12CC2", "note": "(stereo partly shown) [Analog 107]", "values": [{"measurement": "IC50", "setting": "[1]", "result": "> 50", "unit": "µM"}, {"measurement": "IC50", "setting": "[2]; read-out: Mean IC50 value", "result": "> 50", "unit": "µM"}]}
{"smiles": "CC1=C(CSC[C@H](NC(=O)CC[C@@H](N)C(=O)O)C(=O)NCC(=O)O)C2=C(C)C3(CC3)[C@@](C)(O)C(=O)C2=C1", "note": "[Analog 089]", "values": [{"measurement": "IC50", "setting": "[1]", "result": "19.3 ± 5.7", "unit": "µM"}, {"measurement": "IC50", "setting": "[2]; [5]", "result": "> 60", "unit": "µM"}, {"measurement": "IC50", "setting": "[3]", "result": "15.5 ± 2.8", "unit": "µM"}]}
{"smiles": "CC1=C(CCC=NNS(=O)(=O)c2ccc(C)cc2)C2=C(C)C3(CC3)[C@@](C)(O)C(=O)C2=C1", "note": "[Analog 123]", "values": [{"measurement": "IC50", "setting": "[3]", "result": "0.6 ± 0.06", "unit": "µM"}]}
{"smiles": "CC1=C(CC2CC(C=O)CC(C=O)C2O)C2=C(C)C3(CC3)[C@@](C)(O)C(=O)C2=C1", "note": "(stereo partly shown) [Analog 013]", "values": [{"measurement": "IC50", "setting": "[1]", "result": "5.1 ± 0.7", "unit": "µM"}]}
{"smiles": "CC1=C2C=CC=C2C(=O)C2(OCCO2)C12CC2", "note": "[Analog 033]", "values": [{"measurement": "IC50", "setting": "[2]; [5]", "result": "29.9 ± 3.3", "unit": "µM"}, {"measurement": "IC50", "setting": "[3]", "result": "4.6 ± 0.2", "unit": "µM"}]}
{"smiles": "CC1=C(CCC=NO)C2=C(C)C3(CC3)[C@@](C)(O)C(=O)C2=C1", "note": "[Analog 115]", "values": [{"measurement": "IC50", "setting": "[4]", "result": "0.63 ± 0.06", "unit": "µM"}]}
{"smiles": "CC1=C(CSC[C@H](N)C(=O)N[C@@H](CC(N)=O)C(=O)NCC(=O)N[C@@H](CCCNC(=N)N)C(=O)N[C@@H](CS)C(=O)O)C2=C(C)C3(CC3)[C@@](C)(O)C(=O)C2=C1", "note": "[Analog 102] (H-C(X4)NGRC-OH)", "values": [{"measurement": "IC50", "setting": "[1]", "result": "> 13", "unit": "µM"}]}
{"smiles": "CC1=C(CCC=NNC(N)=O)C2=C(C)C3(CC3)[C@@](C)(O)C(=O)C2=C1", "note": "[Analog 121]", "values": [{"measurement": "IC50", "setting": "[2]; [5]", "result": "15.2 ± 6", "unit": "µM"}]}
{"smiles": "CC(=O)O[C@@]1(C)C(=O)C2=CC(C)=C(CO)C2=C(C)C12CC2", "note": "[Analog 015]", "values": [{"measurement": "IC50", "setting": "[2]; [5]", "result": "0.81 ± 0.26", "unit": "µM"}, {"measurement": "IC50", "setting": "[3]", "result": "0.48 ± 0.11", "unit": "µM"}]}
{"smiles": "CC1=C(C=NO)C2=C(C)C3(CC3)[C@@](C)(O)C(=O)C2=C1", "note": "[Analog 126]", "values": [{"measurement": "IC50", "setting": "[2]; [5]", "result": "> 30", "unit": "µM"}]}
{"smiles": "CC1=C(CCC(O)C#N)C2=C(C)C3(CC3)[C@@](C)(O)C(=O)C2=C1", "note": "(stereo partly shown) [Analog 127]", "values": [{"measurement": "IC50", "setting": "[1]", "result": "0.87 ± 0.03", "unit": "µM"}, {"measurement": "IC50", "setting": "[2]; [5]", "result": "> 30", "unit": "µM"}]}
{"smiles": "CC(=O)OCC1=C(COC(C)=O)C2=C(C)C3(CC3)[C@@](C)(O)C(=O)C2=C1", "note": "[Analog 076]", "values": [{"measurement": "IC50", "setting": "[2]; [5]", "result": "39.5 ± 7.2", "unit": "µM"}]}
{"smiles": "CC1=C(COCCO)C2=C(C)C3(CC3)[C@@](C)(O)C(=O)C2=C1", "note": "[Analog 022]", "values": [{"measurement": "IC50", "setting": "[2]; [5]", "result": "31.7 ± 1.4", "unit": "µM"}]}
{"smiles": "CC1=C(C=O)C2=C(C)C3(CC3)[C@@](C)(O)C(=O)C2=C1", "note": "[Analog 011]", "values": [{"measurement": "IC50", "setting": "[1]", "result": "4.9 ± 0.9", "unit": "µM"}, {"measurement": "IC50", "setting": "[2]; [5]", "result": "> 100", "unit": "µM"}, {"measurement": "IC50", "setting": "[4]", "result": "40.4 ± 6.7", "unit": "µM"}]}
{"smiles": "CC(=O)OCC1=CC2=C(C)C3(CC3)[C@@](C)(O)C(=O)C2=C1", "note": "[Analog 075]", "values": [{"measurement": "IC50", "setting": "[1]", "result": "19.6 ± 9.7", "unit": "µM"}, {"measurement": "IC50", "setting": "[2]; [5]", "result": "62 ± 3.6", "unit": "µM"}]}
{"smiles": "CC1=C(CCC(=O)O)C2=C(C)C3(CC3)[C@@](C)(O)C(=O)C2=C1", "note": "[Analog 038]", "values": [{"measurement": "IC50", "setting": "[1]", "result": "0.75 ± 0.06", "unit": "µM"}, {"measurement": "IC50", "setting": "[2]; [5]", "result": "24.9 ± 8", "unit": "µM"}]}
{"smiles": "CC1=C2C(=C[C@@](C)(COC(=O)c3cc([N+](=O)[O-])cc([N+](=O)[O-])c3)C2OC(=O)CCCC(=O)O)C(=O)[C@](C)(O)C12CC2", "note": "(stereo partly shown) [Analog 118]", "values": [{"measurement": "IC50", "setting": "[2]; [5]", "result": "24.5 ± 4.5", "unit": "µM"}]}
{"smiles": "CC1=C(CSCC(N)C(=O)O)C2=C(C)C3(CC3)[C@@](C)(O)C(=O)C2=C1", "note": "(stereo partly shown) [Analog 037]", "values": [{"measurement": "IC50", "setting": "[2]; [5]", "result": "> 85", "unit": "µM"}, {"measurement": "IC50", "setting": "[3]", "result": "29.2 ± 2.3", "unit": "µM"}]}
{"smiles": "CC1=C(CSc2ccc(O)cc2)C2=C(C)C3(CC3)[C@@](C)(O)C(=O)C2=C1", "note": "[Analog 023]", "values": [{"measurement": "IC50", "setting": "[1]", "result": "2.9 ± 1.14", "unit": "µM"}, {"measurement": "IC50", "setting": "[2]; [5]", "result": "> 138", "unit": "µM"}, {"measurement": "IC50", "setting": "[3]", "result": "2.75 ± 0.5", "unit": "µM"}]}
{"smiles": "CC1=C(CCCO)C2=C(C)C3(CC3)[C@@](C)(O)C(=O)C2=C1", "note": "[Analog 009]", "values": [{"measurement": "IC50", "setting": "[2]; [5]", "result": "47.1 ± 11", "unit": "µM"}, {"measurement": "IC50", "setting": "[4]", "result": "43.2 ± 2.3", "unit": "µM"}]}
{"smiles": "CC(=O)ON=CCCC1=C(C)C=C2C(=O)[C@](C)(O)C3(CC3)C(C)=C21", "note": "[Analog 124]", "values": [{"measurement": "IC50", "setting": "[2]; [5]", "result": "> 30", "unit": "µM"}, {"measurement": "IC50", "setting": "[3]", "result": "0.87 ± 0.35", "unit": "µM"}]}
{"smiles": "CC1=C(CSCC[C@H](N)C(=O)O)C2=C(C)C3(CC3)[C@@](C)(O)C(=O)C2=C1", "note": "[Analog 097]", "values": [{"measurement": "IC50", "setting": "[2]; [5]", "result": "> 82", "unit": "µM"}]}
{"smiles": "CC1=C(Br)C2=C(C)C3(CC3)[C@@](C)(O)C(=O)C2=C1", "note": "[Analog 004]", "values": [{"measurement": "IC50", "setting": "[3]", "result": 0.6, "unit": "µM"}]}
{"smiles": "CC1=C2C=C(CO)C=C2C(=O)[C@](C)(O)C12CC2", "note": "[Analog 062]", "values": [{"measurement": "IC50", "setting": "[2]; [5]", "result": "37.1 ± 2.3", "unit": "µM"}, {"measurement": "IC50", "setting": "[3]", "result": "0.66 ± 0.2", "unit": "µM"}]}
{"smiles": "CC1=C2C(=CC(CO)=C2CO)C(=O)[C@](C)(O)C12CC2", "note": "[Analog 063]", "values": [{"measurement": "IC50", "setting": "[3]", "result": "0.58 ± 0.25", "unit": "µM"}]}
{"smiles": "COCC1=C(COC)C2=C(C)C3(CC3)[C@@](C)(O)C(=O)C2=C1", "note": "[Analog 082]", "values": [{"measurement": "IC50", "setting": "[1]", "result": "50.6 ± 7.1", "unit": "µM"}, {"measurement": "IC50", "setting": "[2]; [5]", "result": "> 100", "unit": "µM"}]}
{"smiles": "CC1=C(CCC(=O)OC2CCC3(C)C(CCC4C3CC[C@]3(C)C(=O)CCC43)C2)C2=C(C)C3(CC3)[C@@](C)(O)C(=O)C2=C1", "note": "(stereo partly shown) [Analog 112]", "values": [{"measurement": "IC50", "setting": "[2]; [5]", "result": "14.9 ± 0.1", "unit": "µM"}, {"measurement": "IC50", "setting": "[4]", "result": "5.2 ± 0.3", "unit": "µM"}]}
{"smiles": "CC1=C2C=CC=C2[C@@H](O)C2(OCCO2)C12CC2", "note": "[Analog 060]", "values": [{"measurement": "IC50", "setting": "[1]", "result": "19.4 ± 1.8", "unit": "µM"}, {"measurement": "IC50", "setting": "[2]; read-out: Mean IC50 value", "result": "27.6 ± 3", "unit": "µM"}]}
